The values below come from patent publication US10759813B2, “Neprilysin inhibitors” (THERAVANCE BIOPHARMA R&D IP, LLC, priority 2010, dated 2020).

Bounds are passed on as bounds.

Chain of human neprilysin (EC 3.4.24.11; NEP) (P08473 52-750): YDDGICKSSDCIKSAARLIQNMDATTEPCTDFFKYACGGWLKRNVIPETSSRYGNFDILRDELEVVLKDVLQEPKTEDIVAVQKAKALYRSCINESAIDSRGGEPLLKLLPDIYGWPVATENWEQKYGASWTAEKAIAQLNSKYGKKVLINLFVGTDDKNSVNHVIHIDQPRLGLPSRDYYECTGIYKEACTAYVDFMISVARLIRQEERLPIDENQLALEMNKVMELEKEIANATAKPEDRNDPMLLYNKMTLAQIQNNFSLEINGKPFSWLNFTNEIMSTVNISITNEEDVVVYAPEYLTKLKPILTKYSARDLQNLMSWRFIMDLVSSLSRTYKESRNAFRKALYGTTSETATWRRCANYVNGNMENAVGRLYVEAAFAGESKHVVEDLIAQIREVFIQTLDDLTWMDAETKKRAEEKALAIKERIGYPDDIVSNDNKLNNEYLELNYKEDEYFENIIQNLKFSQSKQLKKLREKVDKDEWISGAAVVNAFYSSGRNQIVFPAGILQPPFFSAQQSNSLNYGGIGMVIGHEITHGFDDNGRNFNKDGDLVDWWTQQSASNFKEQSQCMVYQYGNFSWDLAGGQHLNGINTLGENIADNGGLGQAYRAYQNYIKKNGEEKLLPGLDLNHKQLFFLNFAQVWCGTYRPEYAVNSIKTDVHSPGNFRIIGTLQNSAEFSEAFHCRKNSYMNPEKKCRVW

This assay addresses human neprilysin (EC 3.4.24.11; NEP) (Homo sapiens (Human), UniProt P08473). The assay can be described thus: In vitro enzyme inhibition assay at human NEP (fluorogenic peptide substrate). The following applies: pKi values at human NEP, recombinant human NEP. It counts as biochemical. How it is done:
In Vitro Assays for the Quantitation of Inhibitor Potencies at Human and Rat NEP, and Human ACE
The inhibitory activities of compounds at human and rat neprilysin (EC 3.4.24.11; NEP) and human angiotensin converting enzyme (ACE) were determined using in vitro assays as described below.
Recombinant human NEP and recombinant human ACE were obtained commercially (R&D Systems, Minneapolis, Minn., catalog numbers 1182-ZN and 929-ZN, respectively). The fluorogenic peptide substrate Mca-D-Arg-Arg-Leu-Dap-(Dnp)-OH (Medeiros et al. (1997) Braz. J. Med. Biol. Res. 30:1157-62; Anaspec, San Jose, Calif.) and Abz-Phe-Arg-Lys(Dnp)-Pro-OH (Araujo et al. (2000) Biochemistry 39:8519-8525; Bachem, Torrance, Calif.) were used in the NEP and ACE assays respectively.
The assays were performed in 384-well white opaque plates at 37° C. using the fluorogenic peptide substrates at a concentration of 10 μM in Assay Buffer (NEP: 50 mM HEPES, pH 7.5, 100 mM NaCl, 0.01% polyethylene glycol sorbitan monolaurate (Tween-20), 10 μM ZnSO4; ACE: 50 mM HEPES, pH 7.5, 100 mM NaCl, 0.01% Tween-20, 1 μM ZnSO4).
Test compounds were assayed over the range of concentrations from 10 μM to pM. Test compounds were added to the enzymes and incubated for 30 minute at 37° C. prior to initiating the reaction by the addition of substrate. Reactions were terminated after 20 minutes of incubation at 37° C. by the addition of glacial acetic acid to a final concentration of 3.6% (v/v).
Plates were read on a fluorometer with excitation and emission wavelengths set to 320 nm and 405 nm, respectively. Inhibition constants were obtained by nonlinear regression of the data using the equation (GraphPad Software, Inc., San Diego, Calif.): v=v0/[1+(I/K′)] where v is the reaction rate, v0 is the uninhibited reaction rate, I is the inhibitor concentration and K′ is the apparent inhibition constant.
Compounds of the invention were tested in this assay and found to have pKi values at human NEP as follows.
Turning to `O=C(N[C@H](Cc1ccc(-c2ccccc2)cc1)CC(O)C(=O)O)c1nc[nH]n1` (stereo partly drawn) [Example 10-6, (R)-5-Biphenyl-4-yl-2-hydroxy-4-[(1H-[1,2,4]triazole-3-carbonyl)amino]pentanoic acid], the Ki is 12.6 to 100 nM.
Take `Cc1nc(C(=O)N[C@H](Cc2ccc(-c3ccccc3)cc2)CC(O)C(=O)O)nn1-c1ccc(Cl)cc1` (stereo partly drawn) [Example 10-7, (R)-5-Biphenyl-4-yl-4-{[1-(4-chlorophenyl)-5-methyl-1H-[1,2,4]triazole-3-carbonyl]-amino}-2-hydroxypentanoic acid]: the Ki was 12.6 to 100 nM.
Same read-out and setting: the result for `O=C(N[C@H](Cc1ccc(-c2ccccc2)cc1)C[C@@H](O)C(=O)O)c1n[nH]c(O)n1` [Example 10-9, (2R,4R)-5-Biphenyl-4-yl-2-hydroxy-4-[(5-hydroxy-1H-[1,2,4]triazole-3-carbonyl)amino]-pentanoic acid] reads 1.26 to 10 nM.
`O=C(N[C@H](Cc1ccc(-c2ccccc2)cc1)CC(O)C(=O)O)c1nnc(-c2ccccn2)[nH]1` (stereo partly drawn) [Example 10-10, (R)-5-Biphenyl-4-yl-2-hydroxy-4-[(5-pyridin-2-yl-4H-[1,2,4]triazole-3-carbonyl)amino]pentanoic acid]: the inhibition constant (Ki) was 1.26 to 10 nM.
On the same count and under the same terms, next, `Cc1n[nH]c(C(=O)N[C@H](Cc2ccc(-c3ccccc3)cc2)CC(O)C(=O)O)n1` (stereo partly drawn) [Example 10-11, (R)-5-Biphenyl-4-yl-2-hydroxy-4-[(5-methyl-2H-[1,2,4]triazole-3-carbonyl)amino]pentanoic acid]: 12.6 to 100 nM; `O=C(N[C@H](Cc1ccc(-c2ccccc2)cc1)C[C@@H](O)C(=O)O)c1nc(Cl)n[nH]1` [Example 10-12, (2R,4R)-5-Biphenyl-4-yl-4-[(5-chloro-2H-[1,2,4]triazole-3-carbonyl)amino]-2-hydroxypentanoic acid]: 1.26 to 10 nM; `O=C(O)c1cccc(Cn2nnc3cc(C(=O)N[C@H](Cc4ccc(-c5ccccc5)cc4)CC(O)C(=O)O)ccc32)c1` (stereo partly drawn) [Example 11-1, 3-[5-((R)-1-Biphenyl-4-ylmethyl-3-carboxy-3-hydroxypropylcarbamoyl)-benzotriazol-1-ylmethyl]-benzoic acid]: 1.26 to 10 nM.
Same read-out and setting: next, `O=C(O)c1ccc(Cn2nnc3cc(C(=O)N[C@H](Cc4ccc(-c5ccccc5)cc4)C[C@H](O)C(=O)O)ccc32)cc1` [Example 11-2, 4-[5-((1R,3S)-1-Biphenyl-4-ylmethyl-3-carboxy-3-hydroxypropylcarbamoyl)-benzotriazol-1-ylmethyl]-benzoic acid]: 12.6 to 100 nM; `O=C(N[C@H](Cc1ccc(-c2ccccc2)cc1)CC(O)C(=O)O)c1ccc2[nH]nnc2c1` (stereo partly drawn) [Example 11-3, (R)-4-[(1H-Benzotriazole-5-carbonyl)amino]-5-biphenyl-4-yl-2-hydroxypentanoic acid]: 1.26 to 10 nM.
Still for that read-out and setting: the result for `O=C(N[C@H](Cc1ccc(-c2ccccc2)cc1)CC(O)C(=O)O)c1cc(F)c2[nH]nnc2c1` (stereo partly drawn) [Example 11-4, (R)-5-Biphenyl-4-yl-4-[(7-fluoro-1H-benzotriazole-5-carbonyl)amino]-2-hydroxy-pentanoic acid] reads 1.26 to 10 nM; that for `Cc1cc(C(=O)N[C@H](Cc2ccc(-c3ccccc3)cc2)CC(O)C(=O)O)cc2[nH]nnc12` (stereo partly drawn) [Example 11-6, (R)-5-Biphenyl-4-yl-2-hydroxy-4-[(7-methyl-3H-benzotriazole-5-carbonyl)amino]pentanoic acid], 1.26 to 10 nM; that for `O=C(N[C@H](Cc1ccc(-c2ccccc2)cc1)CC(O)C(=O)O)c1ccc2[nH]nnc2c1Cl` (stereo partly drawn) [Example 11-7, (R)-5-Biphenyl-4-yl-4-[(4-chloro-1H-benzotriazole-5-carbonyl)amino]-2-hydroxy-pentanoic acid], 1.26 to 10 nM.
Take `Cc1nc2ccc(C(=O)N[C@H](Cc3ccc(-c4ccccc4)cc3)CC(O)C(=O)O)cc2o1` (stereo partly drawn) [Example 11-8, (R)-5-Biphenyl-4-yl-2-hydroxy-4-[(2-methyl-benzooxazole-6-carbonyl)-amino]-pentanoic acid]: the Ki is 12.6 to 100 nM.
Consider `O=C(N[C@H](Cc1ccc(-c2ccccc2)cc1)CC(O)C(=O)O)c1cnc2[nH]cnc2c1` (stereo partly drawn) [Example 11-9, (R)-5-Biphenyl-4-yl-2-hydroxy-4-[(3H-imidazo[4,5-b]pyridine-6-carbonyl)-amino]-pentanoic acid], for which the inhibition constant (Ki) was 12.6 to 100 nM.
On the same count and under the same terms, the result for `O=C(N[C@H](Cc1ccc(-c2ccccc2)cc1)CC(O)C(=O)O)c1cnc2nn[nH]c2c1` (stereo partly drawn) [Example 11-11, (R)-5-Biphenyl-4-yl-2-hydroxy-4-[(1H-[1,2,3]triazolo[4,5-b]pyridine-6-carbonyl)-amino]-pentanoic acid] reads 1.26 to 10 nM.
In the case of `O=C(N[C@H](Cc1ccc(-c2ccccc2)cc1)C[C@H](O)C(=O)O)c1cnc2[nH]nnc2c1` [Example 11-13, (2S,4R)-5-Biphenyl-4-yl-2-hydroxy-4-[(3H-[1,2,3]triazolo[4,5-b]pyridine-6-carbonyl)-amino]-pentanoic acid], the negative logarithm of the Ki (pKi) is on record as at least 9.0.
For `O=C(O)c1ccc(C(=O)N[C@H](Cc2ccc(-c3ccccc3)cc2)CC(O)C(=O)O)o1` (stereo partly drawn) [Example 12-1, 5-((R)-1-Biphenyl-4-ylmethyl-3-carboxy-3-hydroxypropylcarbamoyl)furan-2-carboxylic acid], the inhibition constant Ki is 1.26 to 10 nM.
Take `O=C(O)c1ccc(C(=O)N[C@H](Cc2ccc(-c3ccccc3)cc2)CC(O)C(=O)O)s1` (stereo partly drawn) [Example 12-2, 5-((R)-1-Biphenyl-4-ylmethyl-3-carboxy-3-hydroxypropylcarbamoyl)thiophene-2-carboxylic acid]: the inhibition constant Ki was 1.26 to 10 nM.
Same read-out and setting: the result for `COc1cc(C(=O)N[C@H](Cc2ccc(-c3ccccc3)cc2)C[C@@H](O)C(=O)O)on1` [Example 12-3, (2R,4R)-5-Biphenyl-4-yl-2-hydroxy-4-[(3-methoxyisoxazole-5-carbonyl)amino]-pentanoic acid] reads 1.26 to 10 nM.
Take `O=C(N[C@H](Cc1ccc(-c2ccccc2)cc1)C[C@@H](O)C(=O)O)c1cc(-c2ccc(Cl)cc2)no1` [Example 12-4, (2R,4R)-5-Biphenyl-4-yl-4-{[3-(4-chlorophenyl)-isoxazole-5-carbonyl]-amino}-2-hydroxy-pentanoic acid]: the negative logarithm of the Ki (pKi) is listed as at least 9.0.
Same read-out and setting: next, `COc1ccccc1C(=O)Nc1cc(C(=O)N[C@H](Cc2ccc(-c3ccccc3)cc2)C[C@@H](O)C(=O)O)on1` [Example 12-5, (2R,4R)-5-Biphenyl-4-yl-2-hydroxy-4-{[3-(2-methoxy-benzoylamino)-isoxazole-5-carbonyl]-amino}-pentanoic acid]: at least 9.0; `O=C(N[C@H](Cc1ccc(-c2ccccc2)cc1)C[C@@H](O)C(=O)O)c1cc(-c2ccccc2Cl)no1` [Example 12-6, (2R,4R)-5-Biphenyl-4-yl-4-{[3-(2-chlorophenyl)-isoxazole-5-carbonyl]-amino}-2-hydroxy-pentanoic acid]: at least 9.0; `O=C(N[C@H](Cc1ccc(-c2ccccc2)cc1)C[C@@H](O)C(=O)O)c1cc(C2CCCCC2)no1` [Example 12-7, (2R,4R)-5-Biphenyl-4-yl-4-[(3-cyclohexyl-isoxazole-5-carbonyl)-amino]-2-hydroxy-pentanoic acid]: at least 9.0.
For the molecule `O=C(N[C@H](Cc1ccc(-c2ccccc2)cc1)C[C@@H](O)C(=O)O)c1cc(-c2cccc(F)c2)no1` [Example 12-8, (2R,4R)-5-Biphenyl-4-yl-4-{[3-(3-fluorophenyl)-isoxazole-5-carbonyl]-amino}-2-hydroxy-pentanoic acid], the pKi is on record as at least 9.0.
For `O=C(N[C@H](Cc1ccc(-c2ccccc2)cc1)C[C@@H](O)C(=O)O)c1cc(-c2ccccc2F)no1` [Example 12-9, (2R,4R)-5-Biphenyl-4-yl-4-{[3-(2-fluorophenyl)-isoxazole-5-carbonyl]-amino}-2-hydroxy-pentanoic acid], the negative-log Ki (pKi) was at least 9.0.
As to `Cn1cc(-c2cc(C(=O)N[C@H](Cc3ccc(-c4ccccc4)cc3)C[C@@H](O)C(=O)O)on2)cn1` [Example 12-10, (2R,4R)-5-Biphenyl-4-yl-2-hydroxy-4-{[3-(1-methyl-1H-pyrazol-4-yl)-isoxazole-5-carbonyl]-amino}-pentanoic acid], the Ki was 1.26 to 10 nM.
For `O=C(N[C@H](Cc1ccc(-c2ccccc2)cc1)C[C@@H](O)C(=O)O)c1cc(-c2cc(Cl)ccc2Cl)no1` [Example 12-11, (2R,4R)-5-Biphenyl-4-yl-4-{[3-(2,5-dichlorophenyl)-isoxazole-5-carbonyl]-amino}-2-hydroxy-pentanoic acid], the negative logarithm of the Ki (pKi) is listed as at least 9.0.
With `O=C(N[C@H](Cc1ccc(-c2ccccc2)cc1)C[C@@H](O)C(=O)O)c1cc(-c2ccc(Cl)c(Cl)c2)no1` [Example 12-12, (2R,4R)-5-Biphenyl-4-yl-4-{[3-(3,4-dichlorophenyl)-isoxazole-5-carbonyl]-amino}-2-hydroxy-pentanoic acid], the Ki is 1.26 to 10 nM.

One may read the Ki as the dissociation constant of the complex between target and ligand, obtained from inhibition or displacement. A word on the pKi: it is the Ki on a negative log10 scale, so that one unit is a factor of ten.
